Consider seven compounds from patent publication US9011988B2, “Liquid-crystal compound, liquid-crystal composition, light absorption anisotropic film, and liquid-crystal display device” (Fujifilm Corporation, priority 2010, dated 2015).

Each structure is given as a SMILES string.

Type in all cases: physicochemical
A short description of series [1]: Maximum absorption wavelength of the dye in N-methylpyrrolidone (UV-2550 spectrophotometer). The following applies: for λmax: in N-methylpyrrolidone solvent. The protocol:
<Maximum Absorption Wavelength>
The maximum absorption wavelength of the dye in N-methylpyrrolidone solvent was measured with a UV-2550 spectrophotometer (made by Shimadzu Corp.).

Series [2] can be described thus: Light resistance of light absorption anisotropic film (change in intensity of absorption). The protocol:
While being heated from room temperature to 200° C., each of the light absorption anisotropic films that had been prepared was irradiated with 10 mW of light and the light resistance was determined based on the change in the intensity of absorption.

Series [3] can be described thus: Phase transition temperature by DSC thermal analysis and polarizing microscope observation. The method, then:
<Phase Transition Temperature>
The phase transition temperature was determined by thermal analysis with a DSC measurement apparatus (made by Seiko Instruments) and by visual observation with a polarizing microscope.

A short description of series [4]: Solubility in chloroform / preparation of chloroform coating liquid. The method, then: The solubility of these compounds in chloroform was measured.
Following stirring and dissolution, a liquid-crystal composition coating liquid was obtained. Each of the coating liquids was then coated on an alignment film that had been formed on a glass substrate and had been rubbed. Subsequently, the chloroform was allowed to dry naturally at room temperature, yielding individual light absorption anisotropic films. The polyvinylalcohol indicated below was employed as the alignment film.

[5] abbreviates: light absorption anisotropic film irradiated with 10 mW of light while heated from room temperature to 200° C., change in intensity of absorption.

`CCCCCCOc1ccc(N=Nc2ccc(C=Cc3cc(OCCOCCOCCOC)c(C=Cc4ccc(N=Nc5ccc(OCCCCCC)cc5)cc4)cc3OC)cc2)cc1` [A-3] showed a λmax in series [1] of 463.3 nm. Further, the Light resistance entry in series [2] (setting [5]) is “Good”.

In series [1], `CCCCCCOc1ccc(N=Nc2ccc(C=Cc3cc(OCCOCCOCCO)c(C=Cc4ccc(N=Nc5ccc(OCCCCCC)cc5)cc4)cc3OC)cc2)cc1` [A-4] yielded a λmax of 463.8 nm. For the same compound, the Light resistance result in series [2] (setting [5]) is listed as “Good”.

In series [1], `CCCCCCCCCCCCCCCCCCOc1cc(C=Cc2ccc(N=Nc3ccc(OCCCCCC)cc3)cc2)c(OC)cc1C=Cc1ccc(N=Nc2ccc(OCCCCCC)cc2)cc1` [A-9] gave a λmax of 460.0 nm. In addition, the Light resistance result in series [2] (setting [5]) is reported as “Good”.

Compound `CCCCCCOc1ccc(N=Nc2ccc(C=Cc3cc(OCCOCCOCCOC)c(C=Cc4ccc(N=Nc5ccc(OCCCCCC)cc5)cc4)cc3OCCOCCOCCOC)cc2)cc1` [A-10] yielded a λmax in series [1] of 457.5 nm. Also, the Light resistance result in series [2] (setting [5]) is “Good”.

In the case of `CCCCCCOc1ccc(N=Nc2ccc(C=Cc3cc(OC)c(C=Cc4ccc(N=Nc5ccc(OCCCCCC)cc5)cc4)cc3OC)cc2)cc1` [A-34], the λmax in series [1] was found to be 463.4 nm. The “temperature range in which nematic liquid crystallinity was confirmed” value in series [3] is not below 247 °C.

As to `CCCCc1ccc(N=Nc2ccc(N=Nc3ccc(N=Nc4ccc(N=Nc5ccc(N=Nc6ccc(CCCC)cc6)cc5)cc4C)c(C)c3)cc2)cc1` [Comparative Compound 1], in series [3], the “temperature range in which nematic liquid crystallinity was confirmed” value was not below 220 °C. Also, the “preparation of coating liquid” value in series [4] (1 weight part compound in 99 weight parts of chloroform) was “precluding preparation of a coating liquid”. In addition, in series [4], the “solubility in chloroform (in words)” value was “almost no solubility”.

`CCCCCCOc1ccc(/C=C/c2ccc(/C=C/c3cc(OCCOCCOCCOCCOCCOCCO)c(/C=C/c4ccc(/C=C/c5ccc(OCCCCCC)cc5)cc4)cc3OC)cc2)cc1` [Comparative Compound 2, reference compound] registered an original absorption wavelength in series [1] of 432.5 nm. The “solubility in chloroform (in words)” value in series [4] is “good solubility”. The Light resistance result is recorded as “poor light resistance” in series [2] (film heated from room temperature to 200° C., irradiated with 10 mW of light) and “Poor” in series [2] (setting [5]).
